Measured values taken from ChEMBL document CHEMBL4765421, “Synthesis of natural 3'-Prenylchalconaringenin and biological evaluation of ameliorating non-alcoholic fatty liver disease and metabolic syndrome” (Eur J Med Chem, 2020).
Active and inactive are the calls of the source. No cut-off for these calls is given here.

How the values were obtained:
HepG2 [1] = assay: Hypolipidemic activity in oleic, palmitic, linoleic and arachidonic acid 29:47:18:6 (v/v)-induced hyperlipidemia in human HepG2 cells assessed as reduction in lipid content at 10 uM by Oil Red O staining based assay relative to control; format: functional; set-up: scale not given: the % may be the effect or the level left
3T3-L1 [2] = assay: Hypolipidemic activity in mouse 3T3-L1 preadipocytes assessed as reduction in lipid content at 10 uM by Oil Red O staining based assay relative to control; format: functional; set-up: scale not given: the % may be the effect or the level left
3T3-L1 [3] = assay: Hypolipidemic activity in mouse 3T3-L1 mature adipocytes assessed as reduction in lipid content at 10 uM by Oil Red O staining based assay relative to control; format: functional; set-up: scale not given: the % may be the effect or the level left
HepG2 [4] = assay: Activation of AMPK in oleic, palmitic, linoleic and arachidonic acid 29:47:18:6 (v/v)-induced human HepG2 cells assessed as increase in AMPK phosphorylation by Western blot; conditions: filed as activator
HepG2 [5] = assay: Activation of AMPK in oleic, palmitic, linoleic and arachidonic acid 29:47:18:6 (v/v)-induced human HepG2 cells assessed as increase in ACC phosphorylation by Western blot; conditions: filed as activator
Mus musculus [6] = assay: Hypolipidemic activity in tyloxapol-induced Kunming mouse model of hyperlipidemia assessed as reduction in serum total cholesterol level at 100 mg/kg, po measured after 24 hrs; format: functional, organism-based
Mus musculus [7] = assay: Hypolipidemic activity in tyloxapol-induced Kunming mouse model of hyperlipidemia assessed as reduction in serum triglyceride level at 100 mg/kg, po measured after 24 hrs; format: functional, organism-based
Mus musculus [8] = assay: Hypolipidemic activity in tyloxapol-induced Kunming mouse model of hyperlipidemia assessed as reduction in serum LDL level at 100 mg/kg, po measured after 24 hrs; format: functional, organism-based
Mus musculus [9] = assay: Hypolipidemic activity in tyloxapol-induced Kunming mouse model of hyperlipidemia assessed as reduction in serum AST level at 100 mg/kg, po measured after 24 hrs; format: functional, organism-based
Mus musculus [10] = assay: Hypolipidemic activity in tyloxapol-induced Kunming mouse model of hyperlipidemia assessed as reduction in serum ALT level at 100 mg/kg, po measured after 24 hrs; format: functional, organism-based
Mus musculus [11] = assay: Hypolipidemic activity in tyloxapol-induced Kunming mouse model of hyperlipidemia assessed as reduction in serum IL6 level at 100 mg/kg, po measured after 24 hrs; format: functional, organism-based
Mus musculus [12] = assay: Hypolipidemic activity in tyloxapol-induced Kunming mouse model of hyperlipidemia assessed as reduction in fatty liver phenotype at 100 mg/kg, po measured after 24 hrs; format: functional, organism-based
Mus musculus [13] = assay: Hypolipidemic activity in tyloxapol-induced Kunming mouse model of hyperlipidemia assessed as reduction in lipid level in liver at 100 mg/kg, po measured after 24 hrs by Oil Red O staining based assay; format: functional, organism-based
Mus musculus [14] = assay: Hypolipidemic activity in tyloxapol-induced Kunming mouse model of hyperlipidemia assessed as increase in appearance of hepatic lobules at 100 mg/kg, po measured after 24 hrs by Oil Red O staining based assay; format: functional, organism-based
Mus musculus [15] = assay: Hypolipidemic activity in tyloxapol-induced Kunming mouse model of hyperlipidemia assessed as liver index at 100 mg/kg, po measured after 24 hrs (reference value: 65.00 +/- 0.87); format: functional
Mus musculus [16] = assay: Hypolipidemic activity in tyloxapol-induced Kunming mouse model of hyperlipidemia assessed as kidney index at 100 mg/kg, po measured after 24 hrs (reference value: 11.20 +/- 0.58); format: functional
Mus musculus [17] = assay: Hypolipidemic activity in tyloxapol-induced Kunming mouse model of hyperlipidemia assessed as spleen index at 100 mg/kg, po measured after 24 hrs (reference value: 3.87 +/- 0.05); format: functional
Mus musculus [18] = assay: Hypolipidemic activity in tyloxapol-induced Kunming mouse model of hyperlipidemia assessed as perirenal white adipose tissue index at 100 mg/kg, po measured after 24 hrs (reference value: 18.14 +/- 1.44); format: functional
Mus musculus [19] = assay: Hypolipidemic activity in tyloxapol-induced Kunming mouse model of hyperlipidemia assessed as epididymis white adipose tissue index at 100 mg/kg, po measured after 24 hrs (reference value: 23.43 +/- 3.10); format: functional
Mus musculus [20] = assay: In vivo induction of AMPK in tyloxapol-induced Kunming mouse model of hyperlipidemia assessed as increase in AKT phosphorylation in white adipose tissue at 100 mg/kg, po measured after 24 hrs by Western blot analysis; format: functional, organism-based
Mus musculus [21] = assay: In vivo induction of AMPK in tyloxapol-induced Kunming mouse model of hyperlipidemia assessed as increase in AKT phosphorylation in liver at 100 mg/kg, po measured after 24 hrs by Western blot analysis; format: functional, organism-based
Mus musculus [22] = assay: In vivo induction of AMPK in tyloxapol-induced Kunming mouse model of hyperlipidemia assessed as increase in AMPKalpha phosphorylation in white adipose tissue at 100 mg/kg, po measured after 24 hrs by Western blot analysis; format: functional, organism-based
Mus musculus [23] = assay: In vivo induction of AMPK in tyloxapol-induced Kunming mouse model of hyperlipidemia assessed as increase in AMPKalpha phosphorylation in liver at 100 mg/kg, po measured after 24 hrs by Western blot analysis; format: functional, organism-based
Mus musculus [24] = assay: In vivo induction of AMPK in tyloxapol-induced Kunming mouse model of hyperlipidemia assessed as increase in ACC phosphorylation in white adipose tissue at 100 mg/kg, po measured after 24 hrs by Western blot analysis; format: functional, organism-based
Mus musculus [25] = assay: In vivo induction of AMPK in tyloxapol-induced Kunming mouse model of hyperlipidemia assessed as increase in ACC phosphorylation in liver at 100 mg/kg, po measured after 24 hrs by Western blot analysis; format: functional, organism-based
Mus musculus [26] = assay: In vivo induction of AMPK in tyloxapol-induced Kunming mouse model of hyperlipidemia assessed as increase in CPT-1A phosphorylation in white adipose tissue at 100 mg/kg, po measured after 24 hrs by Western blot analysis; format: functional, organism-based
Mus musculus [27] = assay: In vivo induction of AMPK in tyloxapol-induced Kunming mouse model of hyperlipidemia assessed as increase in CPT-1A phosphorylation in liver at 100 mg/kg, po measured after 24 hrs by Western blot analysis; format: functional, organism-based
Mus musculus [28] = assay: In vivo induction of AMPK in tyloxapol-induced Kunming mouse model of hyperlipidemia assessed as decrease in SREBP1-C expression in white adipose tissue at 100 mg/kg, po measured after 24 hrs by Western blot analysis; format: functional, organism-based
Mus musculus [29] = assay: In vivo induction of AMPK in tyloxapol-induced Kunming mouse model of hyperlipidemia assessed as decrease in SREBP1-C expression in liver at 100 mg/kg, po measured after 24 hrs by Western blot analysis; format: functional, organism-based
Mus musculus [30] = assay: In vivo induction of AMPK in tyloxapol-induced Kunming mouse model of hyperlipidemia assessed as decrease in FAS expression in white adipose tissue at 100 mg/kg, po measured after 24 hrs by Western blot analysis; format: functional, organism-based
Mus musculus [31] = assay: In vivo induction of AMPK in tyloxapol-induced Kunming mouse model of hyperlipidemia assessed as decrease in FAS expression in liver at 100 mg/kg, po measured after 24 hrs by Western blot analysis; format: functional, organism-based
Mus musculus [32] = assay: In vivo effect on PPAR signaling in tyloxapol-induced Kunming mouse model of hyperlipidemia assessed as increase in mTOR phosphorylation in liver at 100 mg/kg, po measured after 24 hrs by Western blot analysis; format: functional, organism-based
Mus musculus [33] = assay: In vivo effect on PPAR signaling in tyloxapol-induced Kunming mouse model of hyperlipidemia assessed as increase in mTOR phosphorylation in white adipose tissue at 100 mg/kg, po measured after 24 hrs by Western blot analysis; format: functional, organism-based
Mus musculus [34] = assay: In vivo effect on PPAR signaling in tyloxapol-induced Kunming mouse model of hyperlipidemia assessed as increase in PPARalpha expression in white adipose tissue at 100 mg/kg, po measured after 24 hrs by Western blot analysis; format: functional, organism-based
Mus musculus [35] = assay: In vivo effect on PPAR signaling in tyloxapol-induced Kunming mouse model of hyperlipidemia assessed as increase in PPARalpha expression in liver at 100 mg/kg, po measured after 24 hrs by Western blot analysis; format: functional, organism-based
Mus musculus [36] = assay: In vivo effect on PPAR signaling in tyloxapol-induced Kunming mouse model of hyperlipidemia assessed as decrease in PPARbeta expression in white adipose tissue at 100 mg/kg, po measured after 24 hrs by Western blot analysis; format: functional, organism-based
Mus musculus [37] = assay: In vivo effect on PPAR signaling in tyloxapol-induced Kunming mouse model of hyperlipidemia assessed as increase in PPARbeta expression in liver at 100 mg/kg, po measured after 24 hrs by Western blot analysis; format: functional, organism-based
Mus musculus [38] = assay: In vivo effect on PPAR signaling in tyloxapol-induced Kunming mouse model of hyperlipidemia assessed as decrease in PPARgamma expression in white adipose tissue at 100 mg/kg, po measured after 24 hrs by Western blot analysis; format: functional, organism-based
Mus musculus [39] = assay: In vivo effect on PPAR signaling in tyloxapol-induced Kunming mouse model of hyperlipidemia assessed as decrease in PPARgamma expression in liver at 100 mg/kg, po measured after 24 hrs by Western blot analysis; format: functional, organism-based
HepG2 [40] = assay: Cytotoxicity against human HepG2 cells assessed as reduction in cell viability at 10 to 20 uM by MTT assay; format: cell-based; conditions: hepg2, 20 µM, dose 10-20 µM

## CC[C@H](C)C(=O)O[C@H]1C[C@@H](C)C=C2C=C[C@H](C)[C@H](CC[C@@H]3C[C@@H](O)CC(=O)O3)[C@H]21 [LOVASTATIN]
HepG2 [1]
  Activity: 41.17%
3T3-L1 [2]
  Activity: 67.14%
3T3-L1 [3]
  Activity: 47.2%

## NC(=O)c1ncn([C@@H]2O[C@H](CO)[C@@H](O)[C@H]2O)c1N [ACADESINE]
HepG2 [4]
  Activity: Active
HepG2 [5]
  Activity: Active
Mus musculus [6]
  Activity: Active
Mus musculus [7]
  Activity: Active
Mus musculus [8]
  Activity: Active
Mus musculus [9]
  Activity: Active
Mus musculus [10]
  Activity: Active
Mus musculus [11]
  Activity: Active
Mus musculus [12]
  Activity: Active
Mus musculus [13]
  Activity: Active
Mus musculus [14]
  Activity: Active
Mus musculus [15]
  Activity_index: 57.41
Mus musculus [16]
  Activity_index: 8.64
Mus musculus [17]
  Activity_index: 3.01
Mus musculus [18]
  Activity_index: 15.94
Mus musculus [19]
  Activity_index: 20.09
Mus musculus [20]
  Activity: Active
Mus musculus [21]
  Activity: Active
Mus musculus [22]
  Activity: Active
Mus musculus [23]
  Activity: Active
Mus musculus [24]
  Activity: Active
Mus musculus [25]
  Activity: Active
Mus musculus [26]
  Activity: Active
Mus musculus [27]
  Activity: Active
Mus musculus [28]
  Activity: Active
Mus musculus [29]
  Activity: Active
Mus musculus [30]
  Activity: Active
Mus musculus [31]
  Activity: Active
Mus musculus [32]
  Activity: Active
Mus musculus [33]
  Activity: Active
Mus musculus [34]
  Activity: Active
Mus musculus [35]
  Activity: Active
Mus musculus [36]
  Activity: Active
Mus musculus [37]
  Activity: Active
Mus musculus [38]
  Activity: Active
Mus musculus [39]
  Activity: Active

## O=C(/C=C/c1ccc(O)cc1)c1c(O)cc(O)cc1O [4,2',4',6'-TETRAHYDROXYCHALCONE]
HepG2 [40]
  Activity: Non-Toxic

## CC(C)=CCc1c(O)cc(O)c(C(=O)/C=C/c2ccc(O)cc2)c1O [DEMETHYLXANTHOHUMOL]
HepG2 [40]
  Activity: Non-Toxic

## CC(C)OC(=O)C(C)(C)Oc1ccc(C(=O)c2ccc(Cl)cc2)cc1 [FENOFIBRATE]
Mus musculus [6]
  Activity: Active
Mus musculus [7]
  Activity: Active
Mus musculus [8]
  Activity: Active
Mus musculus [9]
  Activity: Active
Mus musculus [10]
  Activity: Active
Mus musculus [11]
  Activity: Active
Mus musculus [12]
  Activity: Active
Mus musculus [13]
  Activity: Active
Mus musculus [14]
  Activity: Active
Mus musculus [15]
  Activity_index: 56.59
Mus musculus [16]
  Activity_index: 9.65
Mus musculus [17]
  Activity_index: 2.85
Mus musculus [18]
  Activity_index: 14.55
Mus musculus [19]
  Activity_index: 15.43
Mus musculus [20]
  Activity: Active
Mus musculus [21]
  Activity: Active
Mus musculus [22]
  Activity: Active
Mus musculus [23]
  Activity: Active
Mus musculus [24]
  Activity: Active
Mus musculus [25]
  Activity: Active
Mus musculus [26]
  Activity: Active
Mus musculus [27]
  Activity: Active
Mus musculus [28]
  Activity: Active
Mus musculus [29]
  Activity: Active
Mus musculus [30]
  Activity: Active
Mus musculus [31]
  Activity: Active
Mus musculus [32]
  Activity: Active
Mus musculus [33]
  Activity: Active
Mus musculus [34]
  Activity: Active
Mus musculus [35]
  Activity: Active
Mus musculus [36]
  Activity: Active
Mus musculus [37]
  Activity: Active
Mus musculus [38]
  Activity: Active
Mus musculus [39]
  Activity: Active
